Publication PMC3913255, “Ligand determinants of fatty acid activation of the pronociceptive ion channel TRPA1” (PeerJ, 2014)
Read-outs that look alike come from different tables or passages of the source. Blank lines part the entries; values can stand above or below the compound they belong to.

Key:
Format in all cases: cell-based
hTRPA1 [1] = target: T1, hTRPA1 (Homo sapiens, UniProt O75762); assay: calcium fluorescence assay in HEK […] cells expressing hTRPA1 ([…]); details: HEK293, read-out: % increase in [Ca]i at 30 μM
T1 construct: gene TRPA1
T1 sequence (O75762 whole entry): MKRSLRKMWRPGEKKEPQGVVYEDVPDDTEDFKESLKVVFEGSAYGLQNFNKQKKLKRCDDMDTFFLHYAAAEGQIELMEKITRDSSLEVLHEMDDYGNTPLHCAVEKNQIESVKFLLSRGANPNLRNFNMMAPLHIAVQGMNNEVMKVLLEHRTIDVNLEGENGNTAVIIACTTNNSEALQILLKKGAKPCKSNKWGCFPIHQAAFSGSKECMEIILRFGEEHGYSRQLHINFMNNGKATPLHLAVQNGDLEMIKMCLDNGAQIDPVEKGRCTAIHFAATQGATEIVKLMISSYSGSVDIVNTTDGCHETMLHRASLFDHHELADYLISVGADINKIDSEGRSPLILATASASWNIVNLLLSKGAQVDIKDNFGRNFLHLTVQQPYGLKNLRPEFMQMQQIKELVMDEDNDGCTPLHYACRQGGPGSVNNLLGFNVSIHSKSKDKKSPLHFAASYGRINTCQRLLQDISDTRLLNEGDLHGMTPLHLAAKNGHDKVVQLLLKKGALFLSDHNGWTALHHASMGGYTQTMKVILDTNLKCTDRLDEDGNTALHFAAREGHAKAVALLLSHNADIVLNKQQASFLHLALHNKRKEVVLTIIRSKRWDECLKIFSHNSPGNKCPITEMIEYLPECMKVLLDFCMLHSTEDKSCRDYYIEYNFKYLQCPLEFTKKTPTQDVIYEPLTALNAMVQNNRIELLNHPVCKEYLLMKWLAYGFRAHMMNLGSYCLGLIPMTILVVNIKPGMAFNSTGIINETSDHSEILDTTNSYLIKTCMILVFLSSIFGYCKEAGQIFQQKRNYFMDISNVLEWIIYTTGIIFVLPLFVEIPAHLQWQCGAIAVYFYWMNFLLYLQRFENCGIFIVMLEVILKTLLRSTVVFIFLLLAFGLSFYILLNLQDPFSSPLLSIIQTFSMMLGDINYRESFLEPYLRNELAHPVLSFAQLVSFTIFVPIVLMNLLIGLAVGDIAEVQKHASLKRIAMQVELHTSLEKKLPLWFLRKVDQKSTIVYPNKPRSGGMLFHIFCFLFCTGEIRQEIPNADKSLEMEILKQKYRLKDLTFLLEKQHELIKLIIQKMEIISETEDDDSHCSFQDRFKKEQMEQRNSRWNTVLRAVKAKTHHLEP

hTRPA1 [2] = target: T1, hTRPA1; assay: as above; details: HEK293; read-out: % increase in [Ca]i at 30 μM
CaV3.1 = target: T2, CaV3.1 (Homo sapiens, UniProt O43497); assay: patch clamp recording of CaV3.[…] channels, […]
T2 construct: gene CACNA1G
T2 sequence (O43497 whole entry): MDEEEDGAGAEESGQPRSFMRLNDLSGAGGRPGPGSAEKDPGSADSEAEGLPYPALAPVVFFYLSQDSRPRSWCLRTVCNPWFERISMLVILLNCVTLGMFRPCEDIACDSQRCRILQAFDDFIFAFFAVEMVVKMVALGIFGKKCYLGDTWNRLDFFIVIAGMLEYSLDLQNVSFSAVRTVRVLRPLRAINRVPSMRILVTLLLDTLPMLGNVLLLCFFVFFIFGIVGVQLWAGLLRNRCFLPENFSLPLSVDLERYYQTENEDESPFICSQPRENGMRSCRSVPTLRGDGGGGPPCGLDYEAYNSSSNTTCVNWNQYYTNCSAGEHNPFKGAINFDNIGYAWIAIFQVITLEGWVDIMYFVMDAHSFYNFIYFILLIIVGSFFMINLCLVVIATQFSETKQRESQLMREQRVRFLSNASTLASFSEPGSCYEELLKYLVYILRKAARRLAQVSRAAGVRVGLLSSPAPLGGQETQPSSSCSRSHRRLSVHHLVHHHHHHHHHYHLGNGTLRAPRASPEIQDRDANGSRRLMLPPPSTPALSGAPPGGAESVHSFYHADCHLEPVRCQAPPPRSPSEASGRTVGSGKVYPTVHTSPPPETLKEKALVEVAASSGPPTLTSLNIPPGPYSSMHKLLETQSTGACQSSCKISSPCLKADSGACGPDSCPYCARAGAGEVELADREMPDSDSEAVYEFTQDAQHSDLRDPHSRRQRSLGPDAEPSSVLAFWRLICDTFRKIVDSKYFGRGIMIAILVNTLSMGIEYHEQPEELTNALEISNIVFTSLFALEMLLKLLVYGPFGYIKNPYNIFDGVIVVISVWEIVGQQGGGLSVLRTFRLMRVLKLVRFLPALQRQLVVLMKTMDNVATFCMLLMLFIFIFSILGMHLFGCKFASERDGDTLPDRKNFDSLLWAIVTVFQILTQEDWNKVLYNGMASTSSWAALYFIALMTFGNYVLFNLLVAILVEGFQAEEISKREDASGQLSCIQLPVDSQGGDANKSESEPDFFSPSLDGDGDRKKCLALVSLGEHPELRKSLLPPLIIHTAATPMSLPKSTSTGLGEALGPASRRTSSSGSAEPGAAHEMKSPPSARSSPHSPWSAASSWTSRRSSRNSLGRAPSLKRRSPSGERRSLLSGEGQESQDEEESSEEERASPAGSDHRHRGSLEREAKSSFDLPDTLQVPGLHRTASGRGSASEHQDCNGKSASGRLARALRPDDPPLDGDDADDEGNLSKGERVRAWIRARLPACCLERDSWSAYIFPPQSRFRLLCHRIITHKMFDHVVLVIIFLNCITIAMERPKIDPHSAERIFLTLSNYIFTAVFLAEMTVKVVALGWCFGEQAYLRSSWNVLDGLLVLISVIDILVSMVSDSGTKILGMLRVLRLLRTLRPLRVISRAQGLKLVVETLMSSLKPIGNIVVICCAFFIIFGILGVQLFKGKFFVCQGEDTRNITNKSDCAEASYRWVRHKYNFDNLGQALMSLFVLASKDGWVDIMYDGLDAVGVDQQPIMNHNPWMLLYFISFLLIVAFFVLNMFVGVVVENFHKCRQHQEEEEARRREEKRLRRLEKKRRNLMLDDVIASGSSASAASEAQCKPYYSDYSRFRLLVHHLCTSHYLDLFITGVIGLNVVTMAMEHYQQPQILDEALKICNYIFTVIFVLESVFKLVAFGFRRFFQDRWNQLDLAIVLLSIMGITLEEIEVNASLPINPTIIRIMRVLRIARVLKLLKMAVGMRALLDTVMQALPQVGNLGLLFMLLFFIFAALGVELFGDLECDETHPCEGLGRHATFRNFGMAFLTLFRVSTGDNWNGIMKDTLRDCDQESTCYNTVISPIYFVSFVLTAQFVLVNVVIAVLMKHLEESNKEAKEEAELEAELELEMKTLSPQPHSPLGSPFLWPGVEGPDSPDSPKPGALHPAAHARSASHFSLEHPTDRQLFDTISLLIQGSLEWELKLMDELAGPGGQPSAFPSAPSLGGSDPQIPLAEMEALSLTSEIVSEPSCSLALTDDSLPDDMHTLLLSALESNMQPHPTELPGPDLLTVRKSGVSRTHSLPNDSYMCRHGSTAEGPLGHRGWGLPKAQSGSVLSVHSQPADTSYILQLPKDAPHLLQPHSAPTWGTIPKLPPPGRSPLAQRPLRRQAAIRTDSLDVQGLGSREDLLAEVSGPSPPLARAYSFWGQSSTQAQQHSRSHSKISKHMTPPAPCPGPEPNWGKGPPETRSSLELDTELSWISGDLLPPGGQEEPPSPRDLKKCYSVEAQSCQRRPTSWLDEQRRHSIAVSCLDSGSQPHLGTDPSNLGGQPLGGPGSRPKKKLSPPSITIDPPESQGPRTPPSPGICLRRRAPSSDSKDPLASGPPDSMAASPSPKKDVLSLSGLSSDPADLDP

hTRPA1 [3] = target: T1, hTRPA1; assay: calcium fluorescence assay and whole-cell patch clamp in HEK […] cells expressing hTRPA1
hTRPA1 [4] = target: T1, hTRPA1; assay: calcium fluorescence assay in HEK […] cells expressing hTRPA1 ([…]); details: HEK293; read-out: Change in RFU (% Predrug)
hTRPA1 [5] = target: T1, hTRPA1; assay: calcium fluorescence assay and whole-cell patch clamp in HEK […] cells expressing hTRPA1; remark: listed apart in the source
mTRPA1 = target: T3, mTRPA1 (Mus musculus, UniProt Q8BLA8); assay: calcium fluorescence assay in HEK […] cells expressing mouse TRPA1 ([…]); details: HEK293; read-out: % of CA (300 μM) response at 100 μM
T3 construct: gene Trpa1
T3 sequence (Q8BLA8 whole entry): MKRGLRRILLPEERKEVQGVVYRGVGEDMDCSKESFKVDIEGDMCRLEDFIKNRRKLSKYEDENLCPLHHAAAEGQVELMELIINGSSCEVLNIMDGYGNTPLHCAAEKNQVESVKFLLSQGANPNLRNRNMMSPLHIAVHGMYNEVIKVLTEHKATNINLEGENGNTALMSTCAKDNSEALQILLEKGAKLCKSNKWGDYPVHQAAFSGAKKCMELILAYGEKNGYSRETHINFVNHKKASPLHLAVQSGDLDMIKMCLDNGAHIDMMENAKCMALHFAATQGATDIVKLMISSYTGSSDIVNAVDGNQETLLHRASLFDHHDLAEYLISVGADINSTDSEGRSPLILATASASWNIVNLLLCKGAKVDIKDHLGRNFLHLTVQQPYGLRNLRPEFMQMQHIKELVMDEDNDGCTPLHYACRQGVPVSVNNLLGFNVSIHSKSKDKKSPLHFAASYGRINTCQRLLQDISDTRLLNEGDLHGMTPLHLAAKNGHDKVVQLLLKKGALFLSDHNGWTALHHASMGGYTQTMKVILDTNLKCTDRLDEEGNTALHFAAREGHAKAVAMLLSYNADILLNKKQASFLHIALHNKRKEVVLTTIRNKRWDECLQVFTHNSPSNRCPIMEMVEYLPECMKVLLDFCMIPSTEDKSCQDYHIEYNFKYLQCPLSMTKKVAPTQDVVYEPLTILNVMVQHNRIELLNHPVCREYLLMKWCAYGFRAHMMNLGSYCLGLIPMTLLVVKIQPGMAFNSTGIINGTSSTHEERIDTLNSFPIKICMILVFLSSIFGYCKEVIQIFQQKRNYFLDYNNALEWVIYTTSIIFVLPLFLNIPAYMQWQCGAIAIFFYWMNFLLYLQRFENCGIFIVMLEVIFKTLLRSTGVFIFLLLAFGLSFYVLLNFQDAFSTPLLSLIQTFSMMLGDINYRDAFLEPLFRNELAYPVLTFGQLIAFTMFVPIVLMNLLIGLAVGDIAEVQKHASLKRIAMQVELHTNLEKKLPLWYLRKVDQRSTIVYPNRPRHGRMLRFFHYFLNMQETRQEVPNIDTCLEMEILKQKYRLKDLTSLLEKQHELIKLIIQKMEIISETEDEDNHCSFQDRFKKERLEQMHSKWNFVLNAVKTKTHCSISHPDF

SMILES: CCCCC/C=C\C/C=C\C/C=C\C/C=C\CCCC(=O)N[C@@H](Cc1ccc(O)cc1)C(=O)O [NA-Tyr, N-arachidonoyl tyrosine]
activation at 30 µM (hTRPA1 [1]): 172 ± 20%

SMILES: CCCCC/C=C\C/C=C\C/C=C\C/C=C\CCCC(=O)NCCO [AEA, anandamide]
activation at 30 µM (hTRPA1 [2]): 227 ± 42%

inhibition at 10 µM (CaV3.1): 64 ± 8%
SMILES: CCCCC/C=C\C/C=C\C/C=C\C/C=C\CCCCCC(=O)O [adrenic acid]

SMILES: O=C/C=C/c1ccccc1 [CA, Cinnamaldehyde]
EC50 (hTRPA1 [3]): 11 ± 2 µM

activation at 30 µM (hTRPA1 [4]): 302 ± 53%
SMILES: CCCCC/C=C\C/C=C\C/C=C\C/C=C\CCCC(=O)OC [AA-ME, Arachidonic acid methyl ester]

SMILES: CCCCC/C=C\C/C=C\C/C=C\C/C=C\CCCC(=O)O [AA, ω6-arachidonic acid]
inhibition at 10 µM (CaV3.1): 81 ± 4%

SMILES: CCCCC/C=C\C/C=C\C/C=C\C/C=C\CCCC(=O)O [AA, arachidonic acid]
EC50 (hTRPA1 [5]): 13 ± 4 µM
Emax at 100 µM (mTRPA1): 81 ± 4%
